Results published in ChEMBL document CHEMBL1132654 (J Med Chem, 1999).

Experiments:
[1] = biological target: Integrin alpha-IIb/beta-3 (Homo sapiens, UniProt P05106+P08514); experiment: Inhibition of alpha IIb beta-3 integrin binding to fibrinogen; format: protein-complex assay
[2] = biological target: Integrin alpha-V/beta-3 (Homo sapiens, UniProt P05106+P06756); experiment: Inhibition of Vitronectin receptor (alpha V beta 3) binding to vitronectin
Integrin alpha-V/beta-3, sequence (P05106 27-788 limits assumed): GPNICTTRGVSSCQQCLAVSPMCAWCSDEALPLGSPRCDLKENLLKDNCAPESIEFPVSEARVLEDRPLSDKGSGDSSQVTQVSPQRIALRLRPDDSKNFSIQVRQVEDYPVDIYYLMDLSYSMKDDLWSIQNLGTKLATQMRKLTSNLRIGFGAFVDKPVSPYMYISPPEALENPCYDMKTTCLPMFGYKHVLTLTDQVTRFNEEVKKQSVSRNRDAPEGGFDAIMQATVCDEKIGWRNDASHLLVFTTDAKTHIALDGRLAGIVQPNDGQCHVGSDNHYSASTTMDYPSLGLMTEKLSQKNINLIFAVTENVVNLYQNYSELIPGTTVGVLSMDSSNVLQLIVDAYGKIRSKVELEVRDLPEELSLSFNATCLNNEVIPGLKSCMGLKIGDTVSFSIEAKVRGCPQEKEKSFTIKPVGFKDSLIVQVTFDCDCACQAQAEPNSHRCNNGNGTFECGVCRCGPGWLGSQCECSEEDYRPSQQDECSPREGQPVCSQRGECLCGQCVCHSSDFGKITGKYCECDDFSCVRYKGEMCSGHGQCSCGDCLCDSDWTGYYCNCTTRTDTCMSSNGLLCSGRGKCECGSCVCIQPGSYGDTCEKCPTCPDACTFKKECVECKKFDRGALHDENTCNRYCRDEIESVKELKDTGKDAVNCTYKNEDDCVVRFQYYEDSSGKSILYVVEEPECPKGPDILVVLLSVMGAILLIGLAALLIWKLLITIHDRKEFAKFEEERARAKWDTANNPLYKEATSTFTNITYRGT
Integrin alpha-V/beta-3, sequence (P06756 31-889 limits assumed): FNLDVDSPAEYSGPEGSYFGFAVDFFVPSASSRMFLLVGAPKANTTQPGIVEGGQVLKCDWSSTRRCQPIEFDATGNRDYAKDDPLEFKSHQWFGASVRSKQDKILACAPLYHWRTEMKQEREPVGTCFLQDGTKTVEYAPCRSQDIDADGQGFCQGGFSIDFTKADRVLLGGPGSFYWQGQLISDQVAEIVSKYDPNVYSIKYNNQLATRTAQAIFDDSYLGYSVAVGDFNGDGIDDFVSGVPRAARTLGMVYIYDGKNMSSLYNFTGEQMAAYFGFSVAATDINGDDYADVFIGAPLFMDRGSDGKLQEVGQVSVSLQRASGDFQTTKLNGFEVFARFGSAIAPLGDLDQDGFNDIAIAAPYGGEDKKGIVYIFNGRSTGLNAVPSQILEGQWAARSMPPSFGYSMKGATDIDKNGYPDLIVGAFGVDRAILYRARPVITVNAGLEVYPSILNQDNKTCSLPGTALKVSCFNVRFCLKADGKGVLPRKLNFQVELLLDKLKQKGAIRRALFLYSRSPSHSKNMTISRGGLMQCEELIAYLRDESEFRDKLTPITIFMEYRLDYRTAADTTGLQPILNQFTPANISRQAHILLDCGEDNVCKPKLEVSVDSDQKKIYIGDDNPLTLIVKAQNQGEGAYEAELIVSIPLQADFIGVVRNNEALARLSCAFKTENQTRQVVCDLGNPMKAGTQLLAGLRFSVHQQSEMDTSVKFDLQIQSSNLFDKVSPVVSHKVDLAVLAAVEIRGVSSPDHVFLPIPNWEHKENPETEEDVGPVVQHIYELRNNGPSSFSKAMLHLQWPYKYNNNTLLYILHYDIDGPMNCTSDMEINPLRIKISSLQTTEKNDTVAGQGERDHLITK
Integrin alpha-V/beta-3, sequence (P06756 891-1048 limits assumed): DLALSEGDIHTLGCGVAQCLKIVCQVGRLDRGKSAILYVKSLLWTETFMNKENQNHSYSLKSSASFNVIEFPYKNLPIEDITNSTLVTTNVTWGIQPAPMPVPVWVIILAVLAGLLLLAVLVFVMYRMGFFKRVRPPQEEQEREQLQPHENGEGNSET

Integrin alpha-IIb/beta-3, sequence (P05106 27-788 limits assumed): as the sequence (P05106 27-788 limits assumed) above
Integrin alpha-IIb/beta-3, sequence (P08514 32-887 limits assumed): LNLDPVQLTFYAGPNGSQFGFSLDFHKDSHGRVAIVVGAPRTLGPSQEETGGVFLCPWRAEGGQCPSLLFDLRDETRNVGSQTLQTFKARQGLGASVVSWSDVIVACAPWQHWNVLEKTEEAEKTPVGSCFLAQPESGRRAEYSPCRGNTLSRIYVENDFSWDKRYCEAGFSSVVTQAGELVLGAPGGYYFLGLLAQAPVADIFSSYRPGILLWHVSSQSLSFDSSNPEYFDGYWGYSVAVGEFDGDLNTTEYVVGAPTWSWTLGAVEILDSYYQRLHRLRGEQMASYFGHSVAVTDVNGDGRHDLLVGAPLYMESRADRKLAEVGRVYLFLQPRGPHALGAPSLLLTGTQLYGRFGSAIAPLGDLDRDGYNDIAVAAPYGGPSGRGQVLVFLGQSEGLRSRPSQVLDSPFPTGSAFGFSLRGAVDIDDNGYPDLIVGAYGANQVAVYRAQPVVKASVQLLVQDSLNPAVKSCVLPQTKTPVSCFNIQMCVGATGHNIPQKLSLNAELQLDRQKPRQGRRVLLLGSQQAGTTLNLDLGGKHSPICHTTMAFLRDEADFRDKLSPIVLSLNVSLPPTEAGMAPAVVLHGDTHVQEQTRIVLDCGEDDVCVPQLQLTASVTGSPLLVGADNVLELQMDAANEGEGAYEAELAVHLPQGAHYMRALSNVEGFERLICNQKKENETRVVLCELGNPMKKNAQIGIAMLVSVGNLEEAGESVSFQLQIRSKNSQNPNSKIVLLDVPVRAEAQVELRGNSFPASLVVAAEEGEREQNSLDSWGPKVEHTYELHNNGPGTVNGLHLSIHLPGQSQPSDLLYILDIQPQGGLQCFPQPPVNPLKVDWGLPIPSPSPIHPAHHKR
Integrin alpha-IIb/beta-3, sequence (P08514 891-1039 limits assumed): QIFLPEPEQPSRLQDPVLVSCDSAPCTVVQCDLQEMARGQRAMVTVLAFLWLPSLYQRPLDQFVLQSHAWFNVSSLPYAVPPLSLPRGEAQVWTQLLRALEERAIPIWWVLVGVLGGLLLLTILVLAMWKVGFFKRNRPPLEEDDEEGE

In the case of `NCCCC[C@H](NC(=O)[C@@H]1CCCN1C(=O)[C@H](CO)NC(=O)[C@H](CC(=O)O)NC(=O)CNC(=O)[C@H](CCCN=C(N)N)NC(=O)CN)C(=O)O`, the IC50 [1] is reported as 1700 nM and the IC50 [2] is reported as 210 nM.
